We go through three compounds from patent US20040161426A1, “Use of IL-6 antagonists in combination with steroids to enhance apoptosis” (priority 2003, published 2004).

For experiment [1], the system named is RPMI 8226 cells. In words: Dexamethasone-induced apoptosis, Tunel assay with flow cytometry. In kind it is cell-based, human. To be noted: for % Apoptosis Mean ± SEM: 48 h; for level of apoptosis (cells undergoing apoptosis): representative experiment. The protocol:
The cell line RPMI 8226, a human multiple myeloma cell line, was purchased from ATCC (Rockville, Md.). Cells were grown and maintained according to ATCC instructions in complete RPMI medium containing 10% FBS, 1% NEAA, 1% L-glutamine and 1% sodium pyruvate.
Chimeric CLB8 (cCLB8) (Centocor, Malvern, Pa.) was used at three different concentrations in the assay. Another a chimeric human-mouse IgG, c171A, also developed at Centocor was used as a negative control antibody.
[…] After the incubation, cells were harvested and the Tunel assay (Tdt-mediated dUTP-FITC nick end labeling) as disclosed in Gavrieli et al., “Identification of Programmed Cell Death in situ Via Specific Labelling of Nuclear DNA Fragmentation”, […] 119:493-501, 1992 was used to measure apoptosis with minor modifications. Briefly, after the 48-hour incubation described above, approximately 10^6 cells were harvested, washed twice, and fixed with 1% paraformaldehyde for 15 minutes. After washing, the cells were permeabilized with 0.1% Triton (Sigma, St. Louis, Mo.) for 5 minutes and washed twice. The labeling reaction was performed in a heating block at 37° C. for 1 hour with 0.3 nM FITC-12-dUTP (Boehringer Mannheim, Indianapolis, Ind.), 2.5 mM CoCI2, 12.5 U Tdt, and 5 microL of 5×Tdt Buffer (Boehringer Mannheim) in a total volume of 50 microL. Cells were analyzed by flow cytometry.
After completing the Tunel assay, cells were washed twice and analyzed on a FACS Calibur flow cytometer (Becton Dickinson Immunocytometry Systems, San Jose, Calif.) equipped with a 15-mW air-cooled 488-nm argon laser. Gating to exclude debris was based upon diminished forward scatter (FSC) and side scatter (SSC). A minimum of 10,000 events was collected per sample and all analyses were performed with CELLQuest software (Becton Dickinson Immunocytometry Systems, San Jose, Calif.).
(In general: A flow cytometer gives signals particle by particle.)

Experiment [2] has as its target T1, IL-6 (Homo sapiens, UniProt P05231).
T1 construct: host or cells: patients (endogenous IL-6)
The conditions noted are these: multiple myeloma patients after cCLB8 administration; cited from earlier work.

T1 sequence (P05231 30-212): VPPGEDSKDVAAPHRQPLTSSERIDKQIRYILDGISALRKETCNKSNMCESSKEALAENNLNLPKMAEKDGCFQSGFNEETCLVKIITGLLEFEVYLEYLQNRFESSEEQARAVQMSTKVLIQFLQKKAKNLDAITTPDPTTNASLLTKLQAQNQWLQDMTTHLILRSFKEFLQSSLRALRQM

Take `C[C@@H]1C[C@H]2[C@@H]3CCC4=CC(=O)C=C[C@]4(C)[C@@]3(F)[C@@H](O)C[C@]2(C)[C@@]1(O)C(=O)CO` [Dexamethasone, reference compound]: the “% Apoptosis Mean ± SEM” value in experiment [1] (RPMI 8226 cells, DEX 10-6 alone) is on record as “% 46 ± 4”; in experiment [1] (RPMI 8226 cells, DEX + IL-6 100 pg), “% 27 ± 9”. For the same compound, the “level of apoptosis (cells undergoing apoptosis)” value in experiment [1] (FIG. 1A, dexamethasone 1 microM, 48 hrs) was 45%; in experiment [1] (FIG. 1B, dexamethasone in the presence of IL-6), 20%.
Consider “IL-6: 22-27 kDa secreted glycoprotein cytokine interleukin 6 [reference compound]”, for which the “IL-6 concentration inhibiting dexamethasone-induced apoptosis” value in experiment [1] (RPMI 8226 cells, dexamethasone 1 microM) was “higher than 100 ng/mL”.
In the case of “cCLB8: chimerized form of the murine anti-IL-6 monoclonal antibody CLB-6/8 (Centocor)”, in experiment [2], the “circulating levels of sIL6R and sgp130” value was “remained unchanged”; the “serum IL-6 activity” value is listed as “total blockage of serum IL-6 activity”. In experiment [1] (RPMI 8226 cells, DEX + IL-6 + CNTO 328 100 ng), the “% Apoptosis Mean ± SEM” value is reported as “% 45 ± 11”. For the same compound, the “% Apoptosis Mean ± SEM” value in experiment [1] (RPMI 8226 cells, DEX + IL-6 + CNTO 328 1 ug) is “% 54 ± 2.5”. Besides, the “neutralization of the inhibitory effect of IL-6 on dexamethasone-induced apoptosis” value in experiment [1] (RPMI 8226 cells, P<0.02) is listed as “neutralized the inhibitory effect of IL-6 on dexamethasone-induced apoptosis in a dose dependent manner”. Besides, the “promotion of cellular apoptosis, combination versus single agents” value in experiment [1] (combination of dexamethasone and cCLB8) is on record as “superior to treatment with either agent alone”. For the same compound, in experiment [1] (FIG. 1C, dexamethasone in the presence of both IL-6 and cCLB8), the “level of apoptosis (cells undergoing apoptosis)” value is 60%.
